# What was measured:
# [1] = molecular target: T1, Glucocorticoid receptor (Homo sapiens, UniProt P04150); assay: Displacement of [3H]dexamethasone from human recombinant glucocorticoid receptor expressed in baculovirus after 18 hrs by scintillation counting analysis
# T1 sequence (P04150 whole entry): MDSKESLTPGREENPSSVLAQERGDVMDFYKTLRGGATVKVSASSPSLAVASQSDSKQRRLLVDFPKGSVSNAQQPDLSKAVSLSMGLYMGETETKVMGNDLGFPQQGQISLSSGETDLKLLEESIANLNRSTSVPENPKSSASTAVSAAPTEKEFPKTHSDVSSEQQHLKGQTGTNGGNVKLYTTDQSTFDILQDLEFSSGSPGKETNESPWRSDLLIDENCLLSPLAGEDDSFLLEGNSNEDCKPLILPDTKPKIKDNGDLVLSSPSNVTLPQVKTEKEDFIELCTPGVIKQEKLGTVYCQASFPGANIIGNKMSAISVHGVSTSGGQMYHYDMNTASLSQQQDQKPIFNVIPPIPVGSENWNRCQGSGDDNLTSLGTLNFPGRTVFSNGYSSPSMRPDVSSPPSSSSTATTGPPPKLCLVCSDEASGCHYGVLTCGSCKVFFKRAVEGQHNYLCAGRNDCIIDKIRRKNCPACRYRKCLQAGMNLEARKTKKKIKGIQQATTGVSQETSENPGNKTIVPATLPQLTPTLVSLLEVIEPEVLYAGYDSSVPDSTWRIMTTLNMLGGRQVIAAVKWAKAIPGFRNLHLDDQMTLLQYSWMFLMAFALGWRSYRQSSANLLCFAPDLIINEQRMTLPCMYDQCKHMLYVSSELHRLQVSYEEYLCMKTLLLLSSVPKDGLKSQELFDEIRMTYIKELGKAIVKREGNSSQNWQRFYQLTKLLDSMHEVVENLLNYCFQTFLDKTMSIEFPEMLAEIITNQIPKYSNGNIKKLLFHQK
# [2] = molecular target: T1, Glucocorticoid receptor; assay: Antagonist activity at glucocorticoid receptor in human SW1353 cells assessed as inhibition of dexamethasone-induced luciferase expression after 16 hrs by MMTV5 reporter gene assay; type: functional, cell-based
# [3] = system: Rattus norvegicus; assay: Antagonist activity at glucocorticoid receptor in Sprague-Dawley rat assessed as change in olanzapine-induced weight gain at 10 mg/kg/day, po administered as divided doses twice daily for 21 days (Rvb =+ 36.5 +/- 10 g); type: functional
# [4] = system: Rattus norvegicus; assay: Antagonist activity at glucocorticoid receptor in Sprague-Dawley rat assessed as change in olanzapine-induced weight gain at 6 mg/kg/day, po administered as divided doses twice daily for 21 days (Rvb =+ 36.5 +/- 10 g); type: functional
# [5] = system: Rattus norvegicus; assay: Antagonist activity at glucocorticoid receptor in Sprague-Dawley rat assessed as change in olanzapine-induced weight gain at 2 mg/kg/day, po administered as divided doses twice daily for 21 days (Rvb =+ 36.5 +/- 10 g); type: functional
# [6] = system: Rattus norvegicus; assay: Antagonist activity at glucocorticoid receptor in Sprague-Dawley rat assessed as change in olanzapine-induced weight gain at 0.2 mg/kg/day, po administered as divided doses twice daily for 21 days (Rvb =+ 36.5 +/- 10 g); type: functional
# [7] = system: Rattus norvegicus; assay: Antagonist activity at glucocorticoid receptor in Sprague-Dawley rat assessed as change in olanzapine-induced weight gain at 0.6 mg/kg/day, po administered as divided doses twice daily for 21 days (Rvb =+ 36.5 +/- 10 g); type: functional
# [8] = Plasma protein binding in rat; type: ADME, cell-free; details: read-out: PPB
# [9] = Plasma protein binding in human; type: ADME, cell-free; details: read-out: PPB
# [10] = Half life in rat at 1 mg/kg, iv; type: ADME, organism-based; parameters: dose 1 mg/kg, route intravenous; details: in vivo
# [11] = Oral bioavailability in rat at 5 mg/kg; type: ADME, organism-based; details: in vivo
# [12] = Clearance in rat at 1 mg/kg, iv; type: ADME, organism-based; parameters: dose 1 mg/kg, route intravenous; details: in vivo
# [13] = molecular target: Cytochrome P450 2C19 (Homo sapiens, UniProt P33261); assay: Inhibition of human CYP2C19; type: ADME
# Chain of Cytochrome P450 2C19 (P33261 whole entry): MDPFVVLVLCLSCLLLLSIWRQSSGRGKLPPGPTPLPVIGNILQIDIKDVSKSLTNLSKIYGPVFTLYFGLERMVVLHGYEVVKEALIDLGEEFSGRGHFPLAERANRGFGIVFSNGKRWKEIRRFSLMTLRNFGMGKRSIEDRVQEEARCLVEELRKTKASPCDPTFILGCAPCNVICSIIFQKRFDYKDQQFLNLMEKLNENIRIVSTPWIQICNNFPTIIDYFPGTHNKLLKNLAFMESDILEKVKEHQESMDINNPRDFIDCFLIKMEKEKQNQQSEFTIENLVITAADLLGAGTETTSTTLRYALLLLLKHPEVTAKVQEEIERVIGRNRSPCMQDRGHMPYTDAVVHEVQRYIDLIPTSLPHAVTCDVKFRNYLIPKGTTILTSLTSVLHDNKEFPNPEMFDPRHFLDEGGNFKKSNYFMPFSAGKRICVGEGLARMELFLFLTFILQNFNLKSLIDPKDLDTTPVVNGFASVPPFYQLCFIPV
# [14] = system: Liver microsomes; assay: Metabolic stability in human liver microsomes; type: ADME, Microsome
# [15] = system: Liver microsomes; assay: Metabolic stability in rat liver microsomes; type: ADME, Microsome
# [16] = molecular target: T2, Cytochrome P450 1A2 (Homo sapiens, UniProt P05177); assay: Inhibition of human CYP1A2; type: ADME
# T2 sequence (P05177 whole entry): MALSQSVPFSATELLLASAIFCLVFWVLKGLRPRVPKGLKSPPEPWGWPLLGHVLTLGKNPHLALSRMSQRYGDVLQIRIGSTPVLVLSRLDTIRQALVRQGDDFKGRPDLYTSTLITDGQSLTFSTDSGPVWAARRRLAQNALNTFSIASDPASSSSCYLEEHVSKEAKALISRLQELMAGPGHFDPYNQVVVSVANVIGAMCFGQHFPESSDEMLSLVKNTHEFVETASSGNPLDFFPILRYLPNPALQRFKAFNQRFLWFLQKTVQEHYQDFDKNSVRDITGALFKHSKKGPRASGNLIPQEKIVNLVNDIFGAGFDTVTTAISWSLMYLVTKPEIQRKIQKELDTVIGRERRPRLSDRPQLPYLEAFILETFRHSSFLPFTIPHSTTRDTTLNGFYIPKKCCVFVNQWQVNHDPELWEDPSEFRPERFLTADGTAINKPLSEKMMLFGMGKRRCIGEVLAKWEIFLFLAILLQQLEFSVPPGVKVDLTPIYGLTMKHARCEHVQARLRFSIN
# [17] = molecular target: Cytochrome P450 2C9 (Homo sapiens, UniProt P11712); assay: Inhibition of human CYP2C9; type: ADME
# Chain of Cytochrome P450 2C9 (P11712 whole entry): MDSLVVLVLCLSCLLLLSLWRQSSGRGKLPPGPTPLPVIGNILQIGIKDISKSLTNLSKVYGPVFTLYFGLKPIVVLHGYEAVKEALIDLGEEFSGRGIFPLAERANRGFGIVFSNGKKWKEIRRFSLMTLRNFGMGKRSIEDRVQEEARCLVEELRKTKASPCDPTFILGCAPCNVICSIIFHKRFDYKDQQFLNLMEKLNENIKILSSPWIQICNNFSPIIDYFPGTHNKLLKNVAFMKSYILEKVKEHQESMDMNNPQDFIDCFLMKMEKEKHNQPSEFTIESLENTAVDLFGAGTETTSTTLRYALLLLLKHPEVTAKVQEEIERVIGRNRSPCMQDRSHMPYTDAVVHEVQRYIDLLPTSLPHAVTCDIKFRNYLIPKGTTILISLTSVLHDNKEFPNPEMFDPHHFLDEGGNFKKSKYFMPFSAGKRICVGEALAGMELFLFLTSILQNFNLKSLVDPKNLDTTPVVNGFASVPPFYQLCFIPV
# [18] = molecular target: Cytochrome P450 3A4 (Homo sapiens, UniProt P08684); assay: Inhibition of human CYP3A4; type: ADME
# Chain of Cytochrome P450 3A4 (P08684 whole entry): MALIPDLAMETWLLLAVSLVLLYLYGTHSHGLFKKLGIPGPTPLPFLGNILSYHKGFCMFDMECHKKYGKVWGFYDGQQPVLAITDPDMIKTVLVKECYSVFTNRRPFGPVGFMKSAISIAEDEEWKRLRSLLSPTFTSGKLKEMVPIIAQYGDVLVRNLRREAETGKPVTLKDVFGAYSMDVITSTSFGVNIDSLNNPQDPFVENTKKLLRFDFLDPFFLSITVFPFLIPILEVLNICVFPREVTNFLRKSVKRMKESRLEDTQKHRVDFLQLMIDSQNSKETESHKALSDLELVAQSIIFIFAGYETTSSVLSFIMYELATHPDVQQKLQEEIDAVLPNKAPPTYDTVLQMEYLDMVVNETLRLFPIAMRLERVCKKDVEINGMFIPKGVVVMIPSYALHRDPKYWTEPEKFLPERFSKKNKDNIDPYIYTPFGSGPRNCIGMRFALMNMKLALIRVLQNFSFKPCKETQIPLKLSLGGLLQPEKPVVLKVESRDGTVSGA
# [19] = molecular target: Cytochrome P450 2D6 (Homo sapiens, UniProt P10635); assay: Inhibition of human CYP2D6; type: ADME
# Chain of Cytochrome P450 2D6 (P10635 whole entry): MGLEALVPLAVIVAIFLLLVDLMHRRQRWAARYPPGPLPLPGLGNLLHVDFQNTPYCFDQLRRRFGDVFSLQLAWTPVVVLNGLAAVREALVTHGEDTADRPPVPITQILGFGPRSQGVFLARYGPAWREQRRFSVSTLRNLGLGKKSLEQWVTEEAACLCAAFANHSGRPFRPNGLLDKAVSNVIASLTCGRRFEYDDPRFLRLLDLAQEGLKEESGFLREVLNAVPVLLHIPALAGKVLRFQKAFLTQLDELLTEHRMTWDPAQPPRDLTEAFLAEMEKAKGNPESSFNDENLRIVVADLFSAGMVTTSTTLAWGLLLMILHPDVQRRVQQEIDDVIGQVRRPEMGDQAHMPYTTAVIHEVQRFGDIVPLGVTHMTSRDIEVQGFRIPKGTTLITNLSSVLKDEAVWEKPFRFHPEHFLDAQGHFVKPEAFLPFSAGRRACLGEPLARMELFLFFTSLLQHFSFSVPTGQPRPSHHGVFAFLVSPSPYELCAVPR
# [20] = system: Liver; assay: Metabolic stability in human liver microsomes
SMILES,Ki [1] [µM],Ki [2] [µM],other results
COCCn1c(=O)[nH]c([C@H]2CC[C@@H](c3ccccc3)CC2)c(Cc2cccc(C(F)(F)F)c2)c1=O,> 0.05,–,–
O=c1[nH]c(=O)c(Cc2ccccc2)c([C@H]2CC[C@H](c3ccccc3)CC2)[nH]1,0.004,0.044,–
O=c1[nH]c(=O)c(Cc2ccccc2)c([C@H]2CC[C@@H](c3ccccc3)CC2)[nH]1,0.032,–,–
Cc1cccc(Cc2c(=O)[nH]c(=O)[nH]c2[C@H]2CC[C@@H](c3ccccc3)CC2)c1,0.003,0.021,–
CCc1ccccc1Cc1c(=O)[nH]c(=O)[nH]c1[C@H]1CC[C@@H](c2ccccc2)CC1,0.019,0.078,–
O=c1[nH]c(=O)c(Cc2ccccc2Cl)c([C@H]2CC[C@@H](c3ccccc3)CC2)[nH]1,0.007,0.037,–
O=c1[nH]c(=O)c(Cc2cccc(C(F)(F)F)c2)c([C@H]2CC[C@@H](c3ccccc3)CC2)[nH]1,0.008,0.024,Activity [3]: -23.7 g; Activity [4]: -23.6 g; Activity [5]: -10.2 g; Activity [6]: 25.6 g; Activity [7]: 9.8 g; fraction unbound [8]: < 0.001; fraction unbound [9]: < 0.001; half-life [10]: 1.8 h; bioavailability [11]: 20%; clearance [12]: 1.32 L/h/kg; inhibition (INH) [13]: Not Active; Stability [14]: Stable; Stability [15]: Stable; inhibition (INH) [16]: Not Active; inhibition (INH) [17]: Not Active; inhibition (INH) [18]: Not Active; inhibition (INH) [19]: Not Active
CS(=O)(=O)c1ccccc1Cc1c(=O)[nH]c(=O)[nH]c1[C@H]1CC[C@@H](c2ccccc2)CC1,0.557,–,–
COc1ccccc1Cc1c(=O)[nH]c(=O)[nH]c1[C@H]1CC[C@@H](c2ccccc2)CC1,0.009,0.056,–
O=c1[nH]c(=O)c(Cc2cc(Cl)ccc2Cl)c([C@H]2CC[C@@H](c3ccccc3)CC2)[nH]1,0.008,0.023,–
O=c1[nH]c(=O)c(Cc2cccc(Cl)c2Cl)c([C@H]2CC[C@@H](c3ccccc3)CC2)[nH]1,0.005,0.025,–
O=c1[nH]c(=O)c(Cc2ccc(Cl)cc2Cl)c([C@H]2CC[C@@H](c3ccccc3)CC2)[nH]1,0.011,0.044,–
O=c1[nH]c(=O)c(Cc2c(Cl)cccc2Cl)c([C@H]2CC[C@@H](c3ccccc3)CC2)[nH]1,0.011,0.067,–
O=c1[nH]c(=O)c(Cc2ccccn2)c([C@H]2CC[C@@H](c3ccccc3)CC2)[nH]1,0.188,0.337,–
O=c1[nH]c(=O)c(Cc2ncccn2)c([C@H]2CC[C@@H](c3ccccc3)CC2)[nH]1,0.4,> 3,–
O=c1[nH]c(=O)c(Cc2ncccc2Cl)c([C@H]2CC[C@@H](c3ccccc3)CC2)[nH]1,0.049,0.116,–
Cc1cc(Cc2c(=O)[nH]c(=O)[nH]c2[C@H]2CC[C@@H](c3ccccc3)CC2)ccn1,> 0.05,> 3,–
O=c1[nH]c(=O)c(Cc2nccs2)c([C@H]2CC[C@@H](c3ccccc3)CC2)[nH]1,0.139,> 0.3,–
Cc1csc(Cc2c(=O)[nH]c(=O)[nH]c2[C@H]2CC[C@@H](c3ccccc3)CC2)n1,0.028,0.119,–
Cn1nccc1Cc1c(=O)[nH]c(=O)[nH]c1[C@H]1CC[C@@H](c2ccccc2)CC1,> 1.5,> 3,–
Cc1cccc(Cc2c(=O)[nH]c(=O)[nH]c2[C@H]2CC[C@@H](c3ccccc3)CC2)n1,0.022,0.057,–
O=c1[nH]c(=O)c(Cc2cccc(C(F)(F)F)n2)c([C@H]2CC[C@@H](c3ccccc3)CC2)[nH]1,0.018,0.047,–
Cc1ccnc(Cc2c(=O)[nH]c(=O)[nH]c2[C@H]2CC[C@@H](c3ccccc3)CC2)c1,0.021,0.044,–
Cn1c(=O)[nH]c([C@H]2CC[C@@H](c3ccccc3)CC2)c(Cc2ccccc2)c1=O,0.024,0.057,–
Cc1cccc(Cc2c(=O)n(C)c(=O)[nH]c2[C@H]2CC[C@@H](c3ccccc3)CC2)c1,0.019,0.039,–
Cc1cccc(Cc2c(=O)n(CCN(C)C)c(=O)[nH]c2[C@H]2CC[C@@H](c3ccccc3)CC2)c1,0.009,> 0.3,–
Cn1c(=O)[nH]c([C@H]2CC[C@@H](c3ccccc3)CC2)c(Cc2cccc(C(F)(F)F)c2)c1=O,0.016,0.162,–
O=c1[nH]c([C@H]2CC[C@@H](c3ccccc3)CC2)c(Cc2cccc(C(F)(F)F)c2)c(=O)n1CCO,0.098,> 3,–
O=c1[nH]c(N2CCC(c3ccccc3)CC2)c(Cc2ccccc2)c(=O)[nH]1,0.008,–,inhibition (INH) [13]: Not Active; inhibition (INH) [16]: Not Active; inhibition (INH) [17]: Not Active; inhibition (INH) [18]: Not Active; inhibition (INH) [19]: Not Active; Stability [20]: Stable
